Here are results for 14 molecules from ChEMBL document CHEMBL1135172, “High-throughput synthesis optimization of sulfonamide NPY Y5 antagonists” (Bioorg Med Chem Lett, 2002).

One may read the Ki as the dissociation constant of the complex between target and ligand, obtained from inhibition or displacement. A lower Ki goes with tighter binding.

The target of this assay is T1, Neuropeptide Y receptor type 5 (Homo sapiens, UniProt Q15761).
T1 sequence (Q15761 whole entry): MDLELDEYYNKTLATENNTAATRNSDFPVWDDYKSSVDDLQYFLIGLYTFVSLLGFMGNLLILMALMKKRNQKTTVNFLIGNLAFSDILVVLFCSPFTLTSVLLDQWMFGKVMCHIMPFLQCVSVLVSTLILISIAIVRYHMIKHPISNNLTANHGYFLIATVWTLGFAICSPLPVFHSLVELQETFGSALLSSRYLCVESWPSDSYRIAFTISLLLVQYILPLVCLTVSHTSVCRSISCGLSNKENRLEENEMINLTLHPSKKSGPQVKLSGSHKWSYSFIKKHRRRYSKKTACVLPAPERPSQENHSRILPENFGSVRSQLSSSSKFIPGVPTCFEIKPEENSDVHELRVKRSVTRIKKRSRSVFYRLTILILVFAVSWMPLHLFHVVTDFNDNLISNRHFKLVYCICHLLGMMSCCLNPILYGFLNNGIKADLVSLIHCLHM
Kind of assay: Displacement of [125I]PYY from human Neuropeptide Y receptor type 5 in COS-7 cell membranes. In general terms: Loss of bound radioactivity is the signal in a displacement assay; it reports binding, not function.

With `Cc1ccc(S(=O)(=O)NC(Cc2ccccc2)C(=O)NCCCCCCNS(=O)(=O)c2cccc3ccccc23)cc1` (centres undefined), the affinity, expressed as Ki, was 426 nM.
As to `O=C(NCCCCCCNS(=O)(=O)c1cccc2ccccc12)C1CCc2ccccc2C1` (centres undefined), the Ki stood at 724 nM.
The molecule `O=C(NC[C@H]1CC[C@H](CNS(=O)(=O)c2ccccc2[N+](=O)[O-])CC1)Nc1cccc2ccccc12` had an inhibitory constant (Ki) of 103 nM.
In the case of `Cc1ccc(S(=O)(=O)NC(Cc2ccccc2)C(=O)NC[C@H]2CC[C@H](CNS(=O)(=O)c3ccc4ccccc4c3)CC2)cc1` (some centres undefined), the Ki was found to be 199 nM.
For `O=C(NCCCCCCNS(=O)(=O)c1ccccc1[N+](=O)[O-])c1ccc2ccccc2c1`, the inhibition constant (Ki) came out at 412 nM.
In the case of `O=S(=O)(NC[C@H]1CC[C@H](CNCc2ccc3c(c2)OCCO3)CC1)c1cccc2ccccc12`, the affinity, expressed as Ki, was 12 nM.
`O=C(NCCCCCCNS(=O)(=O)c1cccc2ccccc12)Nc1cccc2ccccc12`: the Ki is 231 nM.
Consider `O=C(NC[C@H]1CC[C@H](CNS(=O)(=O)c2cccc3ccccc23)CC1)C1CCc2ccccc2C1` (some centres undefined), for which the Ki stood at 4120 nM.
With `O=C(NCCCCNS(=O)(=O)c1ccccc1[N+](=O)[O-])Nc1cccc2ccccc12`, the inhibition constant Ki is 724 nM. This Ki lies about 5.7-fold lower than the previous one.
Molecule `O=C(NC[C@H]1CC[C@H](CNS(=O)(=O)c2cccc3ccccc23)CC1)Nc1ccc(Cl)c(Cl)c1` registered an inhibitory constant (Ki) of 95 nM.
In turn, `O=C(NC[C@H]1CC[C@H](CNS(=O)(=O)c2ccc3ccccc3c2)CC1)C1CCc2ccccc2C1` (some centres undefined) came in with an inhibition constant (Ki) above 100000 nM.
Molecule `O=C(NCCCCCCNS(=O)(=O)c1ccccc1[N+](=O)[O-])C1CCc2ccccc2C1` (centres undefined) yielded an inhibitory constant (Ki) of 46 nM. In other words, the double-digit nanomolar range.
In turn, `O=C(NC[C@H]1CC[C@H](CNS(=O)(=O)c2ccc3cccc([N+](=O)[O-])c3c2)CC1)C1CCc2ccccc2C1` (some centres undefined) yielded an inhibitory constant (Ki) of 724 nM.
The molecule `O=C(NCCCCCCNS(=O)(=O)c1ccccc1[N+](=O)[O-])Nc1cccc2ccccc12` had a Ki of 151 nM.
